In patent publication US5583142A, “Analgesic and nootropic drugs” (priority 1992, dated 1996):
Read-outs that look alike come from different tables or passages of the source.

What was measured:
[1] = mouse
Experimental: In FIGS. 7 and 7 bis vertical lines give s.e. mean. Each column represents the mean of 6-10 mice. SM-21 maleate, PG-9 maleate, SM-32 oxalate, cocaine HCl, amphetamine sulphate and caffeine were administered 15 min before test.

[2] = tested on: presynaptic muscarinic autoreceptor; details: cited from earlier work
[3] = mouse passive avoidance test, amnesia induced by hypoxia; type: in vivo; details: 30 to 300 mg/kg i.p.
Experimental: The nootropic action (learning facilitation, memory enhancement, intelligence booster, cognition activation) was assessed both in mouse and in rat by the two following methods: the mouse was tested by the passive avoidance method, using the so-called light-dark box. A painful stimulus, i.e. an electrically-evoked shock through the animal paws, and an unpleasant but not painful stimulus (mice fall into a water-ice mixture ensuing a sudden dark box floor opening) were used. A non-painful stimulus was required because the data referred to learning had not to be untruthfully negative due to the analgesic action of the claimed molecules. The painful stimulus (electric shock), like the unpleasant but not painful one, was effective at the interval of doses at which the claimed molecules were clearly nootropic but not yet analgesic. Independently of the type of stimulus used, the procedure consists of two experimental phases denominated, respectively, Training and Retention, the latter being carried out 24 hrs after the former. […] To this purpose the time taken by mice to enter the dark box is measured again: the longer the time recorded in the second day when compared with the first (Retention minus Training), the higher the mice learning and memorizing capabilities. […]

SMILES | motor activity and curiosity (exploration activity) ([1]; FIG. 7 and FIG. 7 bis) | selectivity and efficacy as antagonists of the presynaptic muscarinic autoreceptor [2] | other results
CC(N)Cc1ccccc1 (centres unmarked) [amphetamine] | remarkably increase the motor activity |  | 
COC(=O)[C@H]1[C@@H](OC(=O)c2ccccc2)C[C@@H]2CC[C@H]1N2C [cocaine] |  |  | motor activity and curiosity (exploration activity) ([1]; in vivo): remarkably increase the motor activity
Cn1c(=O)c2c(ncn2C)n(C)c1=O [caffeine] | remarkably increase the motor activity |  | 
CN1CCC[C@H]1c1cccnc1 [nicotine] | remarkably increase the motor activity |  | 
Cc1cccc(C)c1OCC(C)N (centres unmarked) [mexyletine] |  | little selective as well as little efficacious | 
CCCCN1CCCCC1C(=O)Nc1c(C)cccc1C (centres unmarked) [bupivacaine] |  | little selective as well as little efficacious | 
NC(=O)CN1CCCC1=O [Piracetam] |  |  | effect on amnesia induced by hypoxia [3]: inactive
CCN(CC)CCOC(=O)c1ccc(N)cc1 [procaine] |  | little selective as well as little efficacious | 
